Assay results reported in patent US20240182475A1 (Université de Lausanne, priority 2021, published 2024).
“Also recorded” adds a separate entry of the source.

Assays:
[1] = tested on: primary murine tenocytes; test: Primary murine tenocyte mineralization (Alizarin red); type: cell-based, mouse; conditions: secondary CPP 24 h, 50 uM; listed as Z20
Procedure: A) Alizarin red absorbance at 570-630 nm of primary murine tenocytes stimulated with secondary CPP for 24 h in DMEM+10% FBS and treated or not with 50 uM of Z20. B) Percentage of cytotoxicity (LDH %) in tenocytes treated or not with Z20 for 24 h. Statistical analysis was determined using one-way ANOVA with ***p<0.001.
Chondrocytes were isolated from 6 days old mice (Cse KO, Cse tg, Cbs KO and corresponding WT mice) as described previously (Nasi, So, et al. 2016). Tenocytes were isolated from 6 to 8 weeks old mice (Cse KO and WT) and by double digestion in Collagenase IV NB standard grade (Witec AG). Chondrocytes were amplified in DMEM with 10% FBS and 1% Penicillin Streptomycin and used at P1. Tenocytes were amplified in αDMEM with 10% FBS, 0.2 mM L-ascorbic acid, 2-phosphate and 1% Penicillin Streptomycin and used at P1. For crystal formation analysis, cells were cultured for 14 days in calcification medium (BGJb (Gibco) medium with 10% FBS, 0.2 mM L-ascorbic acid, 2-phosphate, 20 mM β-glycerol phosphate and 1% Penicillin Streptomycin). Medium and stimulations were refreshed every 3 days of culture. Alternatively, in some experiments, cells were cultured for 24 h in medium supplemented with secondary calciprotein particles (CPP, final concentration equivalent to […] calcium) to induce calcification as previously described (Aghagolzadeh et al. 2017). […]

[2] = tested on: HaCaT cells; test: Human keratinocyte line mineralization (Alizarin red); type: cell-based; conditions: secondary CPP 24 h, different concentrations; listed as Z20
Procedure: Immortalized human keratinocytes HaCaT cells were stimulated with secondary CPP and different concentrations of the compound Z20 for 24 h. Cells were then stained with Alizarin Red. […] Statistical analysis was determined using one-way ANOVA with *p<0.05, ***p<0.001.

[3] = tested on: WT primary VSMC; test: Primary vascular smooth muscle cell mineralization, wild type; type: cell-based, mouse; conditions: secondary CPP 24 h, 50 uM, listed as Z20
Procedure: (§1) Primary VSMC were isolated from wild-type (WT) or CSE-deficient (CSE ko) mice. A) Alizarin red staining of WT or CSE ko VSMC stimulated with secondary CPP for 24 h in DMEM+10% FBS and treated or not with 50 uM of compound Z20. […] Statistical analysis was determined using one-way ANOVA (compared to WT vehicle) with ***p<0.001, ****p<0.0001.

[4] = tested on: CSE ko primary VSMC; test: Primary vascular smooth muscle cell mineralization, CSE ko; type: cell-based, mouse; conditions: secondary CPP 24 h, 50 uM
Procedure: as §1

[5] = tested on: WT murine primary chondrocytes; test: Murine primary chondrocyte calcification (Alizarin red); type: cell-based, mouse; conditions: sCPP 24 h, DMEM+10% FBS, 50 uM
Procedure: (a) WT and Cse-deficient chondrocytes were incubated with a CSE activator (SU004, 50 μM) previously identified by high-through put screen, or with the equivalent volume of DMSO (0.1%) for 24 hours in calcification medium. STS 25 mM was used as a positive control for calcification inhibition. Calcium-containing crystals were stained with Alizarin red and quantified. (b) Cytotoxicity was assessed by LDH measurement and expressed as % over 100% cytotoxicity. (c) IL-6 secretion was measured by ELISA in supernatant of WT chondrocytes incubated with SU004 50 μM or STS 25 mM for 24 hours in calcification medium. (d) Primary human chondrocytes from 3 OA patients (P1, P2, P3) were incubated with SU004 50 μM, or with the equivalent volume of DMSO (0.1%) for 24 hours in calcification medium. Calcium-containing crystals were stained with Alizarin red and quantified. (e) Cytotoxicity was assessed by LDH measurement and expressed as % over 100% cytotoxicity. (f) IL-6 secretion was measured by ELISA in supernatant of human chondrocytes incubated for 24 hours with SU004 50 μM in calcification medium. *p<0.05, ** p<0.01, ****p<0.0001.
Primary murine chondrocytes were stimulated with secondary calciprotein particles (sCPP) for 24 h in DMEM+10% FBS in presence of C5 or C6 at 50 uM or vehicle (DMSO). Mineralization was analyzed by Alizarin red staining of the cells (A) and quantified (B). Statistical analysis was determined using one-way ANOVA with **p<0.01 and ***p<0.001.
Chondrocytes were isolated from 6 days old mice (Cse KO, Cse tg, Cbs KO and corresponding WT mice) as described previously (Nasi, So, et al. 2016). Tenocytes were isolated from 6 to 8 weeks old mice (Cse KO and WT) and by double digestion in Collagenase IV NB standard grade (Witec AG). […]
After incubation in calcification media, supernatant was collected for ELISA and LDH measurement, and cell monolayer was washed in PBS, fixed in 10% formol and crystal deposition analyzed through Alizarin red staining and quantified as previously described

[6] = tested on: ATDCS chondrocytes; test: ATDCS chondrocyte mineralization (Alizarin red); type: cell-based; conditions: sCPP 24 h, different concentrations
Procedure: Alizarin red staining of ATDCS chondrocytes stimulated with sCPP for 24 h in DMEM+10% FBS in presence of different concentrations of compounds C5 and C6. The graphs show Alizarin red absorbance at 570-630 nm. Statistical analysis (in comparison to 0) was determined using one-way ANOVA with *p<0.05, **p<0.01, ***p<0.001, […].

[7] = tested on: MOVAS cells; test: Cytotoxicity assay, LDH release; type: cell-based, mouse; conditions: at 2 uM
Procedure: A) Alizarin red staining of MOVAS cells stimulated with CPP for 24 h in DMEM+10% FBS in presence of different concentrations of compound 22401. […] The background (Alizarin red staining obtained with cells in the absence of CPP) was subtracted from all values. B) Percentage of cytotoxicity, as measured by LDH release, in MOVAS cells in the same conditions as A). Statistical analysis was determined using one-way ANOVA with *p<0.05, **p<0.01, ***p<0.001.
Measurement of lactate dehydrogenase (LDH) as a means of cytotoxicity assay was performed with using CytoTox-ONE Homogeneous Membrane Integrity Assay (Promega) according to the manufacturer's instructions. Values were calculated as percentage of cytotoxicity using the following formula: [(value in sample)−(background)]/[(value in Triton X-100-treated sample)−(background)]×100.

CCn1cnc2c(Nc3cnn(CC4CCCO4)c3)ncnc21 (stereo not shown) [Compound 13]
Mineralization (Alizarin red absorbance 570-630 nm) [1]: inhibited calcification; also recorded: inhibits primary murine tenocyte mineralization
Mineralization (Alizarin red absorbance 570-630 nm) [2]: inhibited calcification; also recorded: inhibits human keratinocyte line mineralization
Mineralization (Alizarin red, % over WT vehicle) [3]: significant inhibition; also recorded: inhibits primary vascular smooth muscle cell mineralization
Mineralization (Alizarin red, % over WT vehicle) [4]: no inhibition

Cn1ncc2c(Nc3cnn(CC4CCCO4)c3)ncnc21 (stereo not shown) [Compound 8, N-{1-methyl-1H-pyrazolo[3,4-d]pyrimidin-4-yl}-1-[(oxolan-2-yl)methyl]-1H-pyrazol-4-amine]
Mineralization (Alizarin red) [5]: inhibit primary murine chondrocyte mineralization
Mineralization (Alizarin red absorbance 570-630 nm) [6]: inhibit ATDCS mineralization in vitro in a dose dependent fashion
Cytotoxicity assay LDH release (% of cytotoxicity) [7]: 15% at
